Experimental data as given in the NIST ThermoML archive (doi:10.1016/j.fluid.2010.03.010).

Conditions: Liquid, Vibrating tube method

CCOS(=O)(=O)[O-].CCn1cc[n+](C)c1 [1-ethyl-3-methylimidazolium ethyl sulfate]
Conditions | mass density [kg/m3]
342.15 K, 101.33 kPa | 1208.29
343.15 K, 100 kPa | 1207.4
343.15 K, 101.33 kPa | 1207.63
343.15 K, 250 kPa | 1207.5
343.15 K, 500 kPa | 1207.6
343.15 K, 1010 kPa | 1207.8
343.15 K, 1990 kPa | 1208.3
343.15 K, 4990 kPa | 1209.6
343.15 K, 10010 kPa | 1211.9
343.15 K, 14990 kPa | 1214.1
343.15 K, 20010 kPa | 1216.3
343.15 K, 24990 kPa | 1218.3
343.15 K, 30000 kPa | 1220.4
343.15 K, 35010 kPa | 1222.4
343.15 K, 40000 kPa | 1224.5
343.15 K, 45000 kPa | 1226.4
343.15 K, 50000 kPa | 1228.4
343.15 K, 54990 kPa | 1230.3
343.15 K, 60000 kPa | 1232.2
344.15 K, 101.33 kPa | 1206.97
345.15 K, 101.33 kPa | 1206.32
346.15 K, 101.33 kPa | 1205.66
347.15 K, 101.33 kPa | 1205.01
348.15 K, 101.33 kPa | 1204.36
349.15 K, 101.33 kPa | 1203.7
350.15 K, 101.33 kPa | 1203.05
351.15 K, 101.33 kPa | 1202.4
352.15 K, 101.33 kPa | 1201.75
353.15 K, 100 kPa | 1200.9
353.15 K, 101.33 kPa | 1201.09
353.15 K, 250 kPa | 1200.9
353.15 K, 500 kPa | 1201
353.15 K, 1010 kPa | 1201.3
353.15 K, 2000 kPa | 1201.8
353.15 K, 4990 kPa | 1203.1
353.15 K, 10010 kPa | 1205.5
353.15 K, 15000 kPa | 1207.6
353.15 K, 20000 kPa | 1209.9
353.15 K, 24990 kPa | 1212
353.15 K, 30010 kPa | 1214.2
353.15 K, 34990 kPa | 1216.2
353.15 K, 40000 kPa | 1218.3
353.15 K, 45000 kPa | 1220.2
353.15 K, 50000 kPa | 1222.3
353.15 K, 54990 kPa | 1224.2
353.15 K, 60000 kPa | 1226.1
354.15 K, 101.33 kPa | 1200.44
355.15 K, 101.33 kPa | 1199.79
356.15 K, 101.33 kPa | 1199.14
357.15 K, 101.33 kPa | 1198.49
358.15 K, 101.33 kPa | 1197.84
359.15 K, 101.33 kPa | 1197.2
360.15 K, 101.33 kPa | 1196.55
361.15 K, 101.33 kPa | 1195.9
362.15 K, 101.33 kPa | 1195.26
363.15 K, 100 kPa | 1194.3
363.15 K, 101.33 kPa | 1194.61
363.15 K, 250 kPa | 1194.4
363.15 K, 500 kPa | 1194.5
363.15 K, 1000 kPa | 1194.7
363.15 K, 2000 kPa | 1195.2
363.15 K, 4990 kPa | 1196.6
363.15 K, 10010 kPa | 1199
363.15 K, 14990 kPa | 1201.3
363.15 K, 19990 kPa | 1203.6
363.15 K, 25000 kPa | 1205.7
363.15 K, 30000 kPa | 1207.9
363.15 K, 34990 kPa | 1210
363.15 K, 40000 kPa | 1212.2
363.15 K, 45000 kPa | 1214.2
363.15 K, 50000 kPa | 1216.2
363.15 K, 55000 kPa | 1218.2
363.15 K, 60000 kPa | 1220.2
373.15 K, 100 kPa | 1187.8
373.15 K, 250 kPa | 1187.9
373.15 K, 500 kPa | 1188
373.15 K, 1010 kPa | 1188.2
373.15 K, 2000 kPa | 1188.7
373.15 K, 4990 kPa | 1190.2
373.15 K, 10010 kPa | 1192.6
373.15 K, 14990 kPa | 1194.9
373.15 K, 20010 kPa | 1197.3
373.15 K, 25000 kPa | 1199.5
373.15 K, 30010 kPa | 1201.7
373.15 K, 34990 kPa | 1203.9
373.15 K, 40000 kPa | 1206.1
373.15 K, 45000 kPa | 1208.1
373.15 K, 50000 kPa | 1210.2
373.15 K, 54990 kPa | 1212.3
373.15 K, 60000 kPa | 1214.3
393.15 K, 100 kPa | 1174.8
393.15 K, 250 kPa | 1174.9
393.15 K, 500 kPa | 1175
393.15 K, 1010 kPa | 1175.3
393.15 K, 2000 kPa | 1175.8
393.15 K, 4990 kPa | 1177.3
393.15 K, 10000 kPa | 1179.9
393.15 K, 15000 kPa | 1182.3
393.15 K, 20010 kPa | 1184.8
393.15 K, 24990 kPa | 1187.1
393.15 K, 30010 kPa | 1189.5
393.15 K, 34990 kPa | 1191.7
393.15 K, 40000 kPa | 1194
393.15 K, 45010 kPa | 1196.2
393.15 K, 50000 kPa | 1198.4
393.15 K, 55000 kPa | 1200.5
393.15 K, 60000 kPa | 1202.6
413.15 K, 100 kPa | 1161.7
413.15 K, 250 kPa | 1161.8
413.15 K, 500 kPa | 1162
413.15 K, 1010 kPa | 1162.2
413.15 K, 2000 kPa | 1162.8
413.15 K, 4990 kPa | 1164.4
413.15 K, 10000 kPa | 1167.2
413.15 K, 14990 kPa | 1169.7
413.15 K, 20010 kPa | 1172.4
413.15 K, 24990 kPa | 1174.8
413.15 K, 30000 kPa | 1177.4
413.15 K, 34990 kPa | 1179.7
413.15 K, 40000 kPa | 1182.1
413.15 K, 45000 kPa | 1184.4
413.15 K, 50000 kPa | 1186.7
413.15 K, 54990 kPa | 1188.9
413.15 K, 60000 kPa | 1191.1
433.15 K, 100 kPa | 1148.6
433.15 K, 250 kPa | 1148.7
433.15 K, 500 kPa | 1148.8
433.15 K, 1010 kPa | 1149.1
433.15 K, 2000 kPa | 1149.7
433.15 K, 4990 kPa | 1151.4
433.15 K, 10010 kPa | 1154.4
433.15 K, 14990 kPa | 1157.1
433.15 K, 20010 kPa | 1159.9
433.15 K, 24990 kPa | 1162.5
433.15 K, 30010 kPa | 1165.2
433.15 K, 34990 kPa | 1167.6
433.15 K, 40000 kPa | 1170.2
433.15 K, 45010 kPa | 1172.6
433.15 K, 50000 kPa | 1175.1
433.15 K, 54990 kPa | 1177.4
433.15 K, 60000 kPa | 1179.7
